Assay results taken from patent US20100048606A1, “10-Substituted Cytisine Derivatives and Methods of Use Thereof” (Georgetown University Office of Technology Commercialization, priority 2006, published 2010).
Read-outs that look alike come from different tables or passages of the source.

Key:
[1] = biological target: nAChRs of rat forebrain tissue (Rattus norvegicus, UniProt P09483+P12390); type: binding; settings: for Ki: mean of three to five independent measurements
α3β2 nAChR = biological target: T1, α3β2 nAChR (Rattus norvegicus, UniProt P04757+P12390); experiment: Competition binding with [3H]epibatidine, membrane homogenates of stably transfected cells; settings: for potency estimated from few doses: read-out: Estimated Ki α3β2
T1 construct: expressed in transfected cells

α3β4 nAChR = biological target: T2, α3β4 nAChR (Rattus norvegicus, UniProt P04757+P12392); experiment: as above; settings: for potency estimated from few doses: read-out: Estimated Ki α3β4
T2 construct: expressed in transfected cells

α4β4 nAChR = biological target: T3, α4β4 nAChR (Rattus norvegicus, UniProt P09483+P12392); experiment: as above; settings: for potency estimated from few doses: read-out: Estimated Ki α4β4
T3 construct: expressed in transfected cells

α2β4 nAChR = biological target: T4, α2β4 nAChR (Rattus norvegicus, UniProt P12389+P12392); experiment: as above; settings: for potency estimated from few doses: read-out: Estimated Ki α2β4
T4 construct: expressed in transfected cells

α4β2 nAChR [2] = biological target: T5, α4β2 nAChR (Rattus norvegicus, UniProt P09483+P12390); experiment: as above; settings: for Affinity ratio (α3β4/α4β2): Ki α3β4 divided by Ki α4β2; for potency estimated from few doses: read-out: Estimated Ki α4β2
T5 construct: expressed in transfected cells

α2β2 nAChR = biological target: T6, α2β2 nAChR (Rattus norvegicus, UniProt P12389+P12390); experiment: as above; settings: for potency estimated from few doses: read-out: Estimated Ki α2β2
T6 construct: expressed in transfected cells

α6β42 = experiment: Primary screening, single concentration competition binding assay; settings: estimated from single concentration (10 μM) competition binding, read-out: Estimated Ki α6β42
α4β2 nAChR subtype = biological target: T7, α4β2 nAChR subtype (Homo sapiens, UniProt P17787+P43681); experiment: Antagonist activity, block of nicotine stimulated responses; type: cell-based; settings: for inhibition at 100 µM: read-out: Inhibition of the function of the α4β2 nAChR subtype; for Block of nicotine stimulated responses at α4β2: concentrations up to 10 μM
T7 construct: expressed in transfected cells
Method: (§1) Compounds 15 and 17a are antagonists of the α4β2 nAChR subtype. […] Compounds 15 and 17a were tested for their antagonist activities at the α4β2 and α3β4 receptors at concentrations from 0.1 μM to 100 μM. […] This is typical of most classical nicotinic ligands.^34

α3β4 nAChR subtype = biological target: T8, α3β4 nAChR subtype (Rattus norvegicus, UniProt P04757+P12392); experiment: as above; type: cell-based; settings: for Inhibition of the function of the α3β4 nAChR subtype: at 100 μM; for Block of nicotine stimulated responses at α3β4: concentrations up to 10 μM
T8 construct: expressed in transfected cells; host or cells: KXα3β4R2 cells (named in the result head)
Method: as §1

α4β2 nAChR's = biological target: T9, α4β2 nAChR's (Homo sapiens, UniProt P17787+P43681); experiment: 86Rb+ efflux assay, agonist activity; type: cell-based; settings: for Agonist activity at α4β2 (86Rb+ efflux): tested at 0.1, 1, 10 and 100 μM
T9 construct: expressed in transfected cells

[3] = biological target: rat α3β4 nAChRs (KXα3β4R2 cells) (Rattus norvegicus, UniProt P04757+P12392); experiment: cell-based; settings: read-out: Relative Emax (% of nicotine Emax) α3β4 nAChR's
α4β2 nAChR [4] = biological target: T10, α4β2 nAChR (Homo sapiens, UniProt P17787+P43681); settings: read-out: EC50 (partial agonist at α4β2 nAChR); reported in the literature; cited from earlier work
α4β2 nAChR [5] = biological target: T10, α4β2 nAChR; settings: read-out: Ki (binding affinity); reported in the literature; cited from earlier work
[6] = background statement; cited from earlier work
[7] = mean of three to five independent measurements, [3H]epibatidine, read-out: Ki α3β2
[8] = mean of three to five independent measurements, [3H]epibatidine, read-out: Ki α3β4
[9] = mean of three to five independent measurements, [3H]epibatidine, read-out: Ki α4β4
[10] = mean of three to five independent measurements, [3H]epibatidine, read-out: Ki α2β4
[11] = mean of three to five independent measurements, [3H]epibatidine, read-out: Ki α4β2
[12] = mean of three to five independent measurements, [3H]epibatidine, read-out: Ki α2β2
[13] = primary screening, estimated from single concentration (10 μM) competition binding
[14] = estimated from single run concentration binding assay

Row | Compound | Ki [1] | Ki (α3β2 nAChR; [7]) | Ki (α3β4 nAChR; [8]) | Ki (α4β4 nAChR; [9]) | Ki (α2β4 nAChR; [10]) | Affinity ratio (α3β4/α4β2) (α4β2 nAChR [2]) | Ki (α4β2 nAChR [2]; [11]) | Ki (α2β2 nAChR; [12]) | potency estimated from few doses (α3β2 nAChR; [13]) | potency estimated from few doses (α3β4 nAChR; [13]) | potency estimated from few doses (α4β4 nAChR; [13]) | potency estimated from few doses (α2β4 nAChR; [13]) | potency estimated from few doses (α4β2 nAChR [2]; [13]) | potency estimated from few doses (α6β42) | further results
1 | Cc1ccc(-c2ccc3n(c2=O)CC2CNCC3C2)s1 (single isomer, unassigned; (-)) [(−)-21c, 9-(5-Methyl-2-thienyl)-1,2,3,4,5,6-hexahydro-1,5-methano-pyrido[1,2-a][1,5]diazocin-8-one] | 1.2 µM | 6 µM | 23 µM | 0.59 µM | 1.7 µM | 59 | 0.39 µM | 0.5 µM |  |  |  |  |  |  | 
2 | COC(=O)[C@H]1C2CNCC(C2)c2cccc(=O)n21 (single isomer, unassigned; (-)) [(−)-22, 8-Oxo-1,3,4,5,6,8-hexahydro-2H-1,5-methano-pyrido[1,2-a][1,5]diazocine-6-carboxylic acid methyl ester] | 48 µM | 250 µM | 320 µM | 33 µM | 75 µM | 13 | 24 µM | 17 µM |  |  |  |  |  |  | 
3 | CCC(=O)[C@H]1C2CNCC(C2)c2cccc(=O)n21 (single isomer, unassigned; (-)) [(−)-23, 6-Propionyl-1,2,3,4,5,6-hexahydro-1,5-methano-pyrido[1,2-a][1,5]diazocin-8-one] | 23 µM | 300 µM | 280 µM | 20 µM | 50 µM | 18 | 16 µM | 14 µM |  |  |  |  |  |  | 
4 | CN1CCCC(Cn2ccccc2=O)C1 (centres unmarked) [Compound 6b, 1-[(1-Methylpiperidin-3-yl)methyl]pyridin-2(1H)-one] |  |  |  |  |  |  |  |  | 6 µM | 160 µM | 2.6 µM | 180 µM | 0.98 µM | 76 µM | potency estimated from few doses (α2β2 nAChR; [13]): 19 µM
5 | O=c1cc(CO)cc2n1CC1CNCC2C1 (racemic) [rac-17a, 10-(Hydroxymethyl)-1,2,3,4,5,6-hexahydro-1,5-methano-pyrido[1,2-a][1,5]diazocin-8-one] |  |  |  |  |  | 909 |  |  |  |  |  |  |  |  | inhibition at 100 µM (α4β2 nAChR subtype): > 50%; Block of nicotine stimulated responses at α4β2 (α4β2 nAChR subtype): did not significantly block nicotine stimulated responses; Inhibition of the function of the α3β4 nAChR subtype (α3β4 nAChR subtype): only slightly inhibited; Block of nicotine stimulated responses at α3β4 (α3β4 nAChR subtype): did not significantly block nicotine stimulated responses; Agonist activity at α4β2 (86Rb+ efflux) (α4β2 nAChR's): did not show agonist activity; Ki (α3β2 nAChR): 0.467 µM; Ki (α3β4 nAChR): 10 µM; Ki (α4β4 nAChR): 0.068 µM; Ki (α2β4 nAChR): 0.3 µM; Ki (α4β2 nAChR [2]): 0.011 µM; Ki (α2β2 nAChR): 0.032 µM
6 | CN1CCCC1c1cccnc1 (single isomer, unassigned; (-)) [(−)-Nicotine, reference compound] |  |  |  |  |  |  |  |  |  |  |  |  |  |  | Emax (α4β2 nAChR's; read-out: Relative Emax (% of nicotine Emax) α4β2 nAChR's, 86Rb+ efflux, mean ± standard error of three experiments): 100%; Emax [3]: 100%
7 | O=c1cccc2n1C[C@@H]1CNC[C@H]2C1 [(−)-Cytisine (4), (−)-Cytisine] |  |  |  |  |  | 144 |  |  |  |  |  |  |  |  | EC50 (α4β2 nAChR [4]): ~1 µM; Ki (α4β2 nAChR [5]): ~0.001 µM
8 | O=c1ccccn1CC1CCCNC1 (centres unmarked) [Compound 6a, 1-(Piperidin-3-ylmethyl)pyridin-2(1H)-one] |  |  |  |  |  |  |  |  | 18.7 µM | 535 µM | 5.55 µM | 159 µM | 1.78 µM | 253 µM | potency estimated from few doses (α2β2 nAChR; [13]): 4.63 µM
9 | O=c1ccccn1CC1CCCN(Cc2ccccc2)C1 (centres unmarked) [Compound 6c, 1-[(1-Benzylpiperidin-3-yl)methyl]pyridin-2(1H)-one] |  |  |  |  |  |  |  |  | 4.3 µM | 83 µM | 1.4 µM | 91 µM | 0.54 µM | 54 µM | potency estimated from few doses (α2β2 nAChR; [13]): 100 µM
10 | Clc1ccc(C2CC3CCC2N3)cn1 (racemic) [(±)-Epibatidine] |  |  |  |  |  |  |  |  |  |  |  |  |  |  | Analgesic potency [6]: approximately 500 times that of morphine
11 | O=c1ccccn1CC1CCN(Cc2ccccc2)CC1 [Compound 7b, 1-[(1-Benzyl-piperidin-4-yl)methyl]pyridin-2(1H)-one] |  |  |  |  |  |  |  |  | 7.3 µM | 620 µM | 4.5 µM | 440 µM | 1.3 µM | 470 µM | potency estimated from few doses (α2β2 nAChR; [13]): 26 µM
12 | O=c1ccccn1CC1CCNCC1 [Compound 7a, 1-(Piperidin-4-ylmethyl)pyridin-2(1H)-one] |  |  |  |  |  |  |  |  | 12 µM | 750 µM | 5.4 µM | 80 µM | 1.6 µM | 87 µM | 
13 | O=c1c(-c2ccc(F)cc2)ccc2n1CC1CNCC2C1 (single isomer, unassigned; (-)) [(−)-21a, 9-(4-Fluorophenyl)-1,2,3,4,5,6-hexahydro-1,5-methano-pyrido[1,2-a][1,5]diazocin-8-one] | 3.1 µM | 12 µM | 66 µM | 3.3 µM | 8.1 µM | 157 | 0.42 µM | 0.82 µM |  |  |  |  |  |  | 
14 | CCCCc1ccc(-c2ccc3n(c2=O)CC2CNCC3C2)cc1 (single isomer, unassigned; (-)) [(−)-21b, 9-(4-Butylphenyl)-1,2,3,4,5,6-hexahydro-1,5-methano-pyrido[1,2-a][1,5]diazocin-8-one] | 21 µM | 36 µM | 140 µM | 13 µM | 28 µM | 17 | 8.2 µM | 8 µM |  |  |  |  |  |  | 
15 | 10-Cyclohexyl(methoxymethyl)-1,2,3,4,5,6-hexahydro-1,5-methano-pyrido[1,2-a][1,5]diazocin-8-one [rac-25] |  |  |  |  |  | >862 |  |  |  |  |  |  |  |  | potency estimated from few doses ([1]; estimated from single run concentration binding assay, read-out: Estimated Ki Forebrain): 0.17 µM; potency estimated from few doses (α3β2 nAChR; [14]): 0.8 µM; potency estimated from few doses (α3β4 nAChR; [14]): 25 µM; potency estimated from few doses (α4β4 nAChR; [14]): 0.15 µM; potency estimated from few doses (α2β4 nAChR; [14]): 0.78 µM; potency estimated from few doses (α4β2 nAChR [2]; [14]): < 0.029 µM; potency estimated from few doses (α2β2 nAChR; [14]): < 0.017 µM
16 | Cc1cc2n(c(=O)c1)CC1CNCC2C1 (racemic) [rac-15, 10-Methyl-1,2,3,4,5,6-hexahydro-1,5-methano-pyrido[1,2-a][1,5]diazocin-8-one] |  |  |  |  |  | 3526 |  |  |  |  |  |  |  |  | inhibition at 100 µM (α4β2 nAChR subtype): > 50%; Block of nicotine stimulated responses at α4β2 (α4β2 nAChR subtype): did not significantly block nicotine stimulated responses; Inhibition of the function of the α3β4 nAChR subtype (α3β4 nAChR subtype): only slightly inhibited; Block of nicotine stimulated responses at α3β4 (α3β4 nAChR subtype): did not significantly block nicotine stimulated responses; Agonist activity at α4β2 (86Rb+ efflux) (α4β2 nAChR's): did not show agonist activity; Ki (α3β2 nAChR): 0.54 µM; Ki (α3β4 nAChR): 6.7 µM; Ki (α4β4 nAChR): 0.038 µM; Ki (α2β4 nAChR): 0.18 µM; Ki (α4β2 nAChR [2]): 0.0019 µM; Affinity ratio (α3β4/α4β2) (α4β2 nAChR [2]; listed as 15): > 3000; Ki (α2β2 nAChR): 0.0075 µM
